Test results taken from patent publication US12281081B2, “Herbicidal compounds” (SYNGENTA CROP PROTECTION AG, priority 2019, dated 2025).

Columns and labels:
[1] = test system: Alopecurus myosuroides (ALOMY); test: Pre-emergence herbicidal glasshouse test; assay type: in vivo; conditions: 250 g/Ha, evaluated after 13 days
Text: (§1) Compounds are applied at 250 g/h. […] NT=not tested.

[2] = test system: Avena fatua (AVEFA); test: Pre-emergence herbicidal glasshouse test; assay type: in vivo; conditions: 250 g/Ha, evaluated after 13 days
Text: as §1

[3] = test system: Echinochloa crus-galli (ECHCG); test: Pre-emergence herbicidal glasshouse test; assay type: in vivo; conditions: 250 g/Ha, evaluated after 13 days
Text: as §1

[4] = test system: Lolium perenne (LOLPE); test: Pre-emergence herbicidal glasshouse test; assay type: in vivo; conditions: 250 g/Ha, evaluated after 13 days
Text: as §1

[5] = test system: Setaria faberi (SETFA); test: Pre-emergence herbicidal glasshouse test; assay type: in vivo; conditions: 250 g/Ha, evaluated after 13 days
Text: as §1

[6] = test system: Alopecurus myosuroides (ALOMY); test: Post-emergence herbicidal glasshouse test; assay type: in vivo; conditions: 250 g/Ha, evaluated after 13 days
Text: as §1

[7] = test system: Avena fatua (AVEFA); test: Post-emergence herbicidal glasshouse test; assay type: in vivo; conditions: 250 g/Ha, evaluated after 13 days
Text: as §1

[8] = test system: Echinochloa crus-galli (ECHCG); test: Post-emergence herbicidal glasshouse test; assay type: in vivo; conditions: 250 g/Ha, evaluated after 13 days
Text: as §1

[9] = test system: Lolium perenne (LOLPE); test: Post-emergence herbicidal glasshouse test; assay type: in vivo; conditions: 250 g/Ha, evaluated after 13 days
Text: as §1

[10] = test system: Setaria faberi (SETFA); test: Post-emergence herbicidal glasshouse test; assay type: in vivo; conditions: 250 g/Ha, evaluated after 13 days
Text: as §1

[11] = test system: wheat crop plants; test: Crop phytotoxicity comparison, post-emergence
[12] = test system: barley crop plants; test: Crop phytotoxicity comparison, post-emergence

SMILES	percentage damage caused to the plant, ALOMY [1]	percentage damage caused to the plant, AVEFA [2]	percentage damage caused to the plant, ECHCG [3]	percentage damage caused to the plant, LOLPE [4]	percentage damage caused to the plant, SETFA [5]	percentage damage caused to the plant, ALOMY [6]	percentage damage caused to the plant, AVEFA [7]	percentage damage caused to the plant, ECHCG [8]	percentage damage caused to the plant, LOLPE [9]	percentage damage caused to the plant, SETFA [10]	% phytotoxicity observed, Wheat ([11]; rate 30 g/ha) [%]	% phytotoxicity observed, Wheat ([11]; rate 60 g/ha) [%]	% phytotoxicity observed, Wheat ([11]; rate 60 g/ha + safener cloquintocet-mexyl (CQC) at 50 g/ha) [%]	damage to the wheat crop compared to prior art compound C1 ([11]; summary of Table B3)	% phytotoxicity observed, Barley ([12]; rate 30 g/ha) [%]	% phytotoxicity observed, Barley ([12]; rate 60 g/ha) [%]	damage to the barley crop compared to prior art compound C1 ([12]; summary of Table B3)
CC#Cc1cc(C)c(C2C(=O)CC3(CCN(S(C)(=N)=O)CC3)CC2=O)c(C)c1 (stereo not drawn) [Compound A1, 9-(2,6-dimethyl-4-prop-1-ynyl-phenyl)-3-(methylsulfonimidoyl)-3-azaspiro[5.5]undecane-8,10-dione]	5 (5=80-100%)	5 (5=80-100%)	5 (5=80-100%)	5 (5=80-100%)	5 (5=80-100%)	5 (5=80-100%)	5 (5=80-100%)	5 (5=80-100%)	5 (5=80-100%)	5 (5=80-100%)	0	0	0	significantly less damaging	0	0	significantly less damaging
CC#Cc1cc(C)c(C2C(=O)CC3(CCN(S(=N)(=O)CC)CC3)CC2=O)c(C)c1 (stereo not drawn) [Compound A2]	5 (5=80-100%)	5 (5=80-100%)	5 (5=80-100%)	5 (5=80-100%)	5 (5=80-100%)	5 (5=80-100%)	5 (5=80-100%)	5 (5=80-100%)	5 (5=80-100%)	5 (5=80-100%)	–	–	–	–	–	–	–
CC#Cc1cc(C)c(C2C(=O)CC3(CCN(S(=O)(=O)N(C)C)CC3)CC2=O)c(C)c1 [Compound A4]	5 (5=80-100%)	5 (5=80-100%)	5 (5=80-100%)	5 (5=80-100%)	5 (5=80-100%)	5 (5=80-100%)	5 (5=80-100%)	5 (5=80-100%)	5 (5=80-100%)	5 (5=80-100%)	–	–	–	–	–	–	–
CC#Cc1cc(C)c(C2C(=O)CC3(CCN(S(=N)(=O)c4ccccn4)CC3)CC2=O)c(C)c1 (stereo not drawn) [Compound A5]	–	5 (5=80-100%)	5 (5=80-100%)	5 (5=80-100%)	5 (5=80-100%)	–	5 (5=80-100%)	5 (5=80-100%)	5 (5=80-100%)	5 (5=80-100%)	–	–	–	–	–	–	–
CC#Cc1cc(C)c(C2C(=O)CC3(CCN(S(=O)(=O)NCC)CC3)CC2=O)c(C)c1 [Compound A6]	3 (3=40-59%)	4 (4=60-79%)	5 (5=80-100%)	4 (4=60-79%)	5 (5=80-100%)	5 (5=80-100%)	5 (5=80-100%)	5 (5=80-100%)	5 (5=80-100%)	5 (5=80-100%)	–	–	–	–	–	–	–
CC#Cc1cc(C)c(C2C(=O)CC3(CCN(S(=O)(=O)N4CCOCC4)CC3)CC2=O)c(C)c1 [Compound A7]	2 (2=20-39%)	1 (1=0-19%)	5 (5=80-100%)	5 (5=80-100%)	5 (5=80-100%)	5 (5=80-100%)	5 (5=80-100%)	5 (5=80-100%)	5 (5=80-100%)	5 (5=80-100%)	–	–	–	–	–	–	–
CC#Cc1cc(C)c(C2C(=O)CC3(CCN(S(=O)(=O)N(C)CC#N)CC3)CC2=O)c(C)c1 [Compound A11]	1 (1=0-19%)	2 (2=20-39%)	5 (5=80-100%)	4 (4=60-79%)	5 (5=80-100%)	5 (5=80-100%)	5 (5=80-100%)	5 (5=80-100%)	5 (5=80-100%)	5 (5=80-100%)	–	–	–	–	–	–	–
